Where a name gives a salt, the structure may show the parent alone. Read-outs that look alike come from different tables or passages of the source.
Columns and labels:
[1] = system: NCI-H292 lung cancer cells; assay: FDA drug screening, complete media vs cholesterol-free media without statin (TABLE 1); type: cell-based, human
[2] = system: NCI-H292 lung cancer cells; assay: FDA drug screening, complete media vs cholesterol-free media with simvastatin (TABLE 2); type: cell-based, human
[3] = NCI-H292 cells, cholesterol-free media without statin, FDA drug library screen
[4] = NCI-H292 cells, complete media, FDA drug library screen
[5] = complete vs cholesterol-free media, >0 enhanced anti-cancer activity, about 0 neutral, <0 antagonist
[6] = NCI-H292 cells, FDA drug library screen, cholesterol-free media with simvastatin 0.04 μM
[7] = NCI-H292 cells, FDA drug library screen, complete media
[8] = complete media vs cholesterol-free media + simvastatin (0.04 μM), >0 enhanced anti-cancer activity, about 0 neutral, <0 antagonist
[9] = NCI-H292 cells, cholesterol-free media without statin
[10] = complete vs cholesterol-free media, […]
[11] = Complete minus Cholesterol-free, greater than 0 enhanced anti-cancer activity, about 0 neutral, below 0 antagonist
[12] = NCI-H292 cells, FDA drug library screen, cholesterol-free media without statin
[13] = complete media minus cholesterol-free media + simvastatin, >0 enhanced anti-cancer activity, about 0 neutral, <0 antagonist
[14] = Complete minus Cholesterol-free, greater than 0 enhanced anti-cancer activity, about 0 neutral, below 0 antagonists
[15] = NCI-H292 cells in cholesterol-free media without statin
[16] = NCI-H292 cells in complete media
[17] = NCI-H292 cells, cholesterol-free media with simvastatin 0.04 μM, cell growth value in FDA drug screen
[18] = NCI-H292 cells, complete media, cell growth value in FDA drug screen
[19] = Complete minus Cholesterol-free, […]
[20] = NCI-H292 cells, cholesterol-free media with simvastatin 0.04 μM, FDA drug library screen (TABLE 2)
[21] = NCI-H292 cells, complete media, FDA drug library screen (TABLE 2)
[22] = complete media minus cholesterol-free media + simvastatin (0.04 μM), […]
[23] = complete vs cholesterol-free media, greater than 0 enhanced anti-cancer activity, about 0 neutral, below 0 antagonists
[24] = NCI-H292 cells, drug in cholesterol-free media with simvastatin 0.04 μM
[25] = NCI-H292 cells, drug in complete media
[26] = complete media minus cholesterol-free media + simvastatin (0.04 μM), >0 enhanced anti-cancer activity, about 0 neutral, <0 antagonist
[27] = NCI-H292 cells, FDA library drug in cholesterol-free media with simvastatin 0.04 μM
[28] = Complete minus Cholesterol-free, >0 enhanced anti-cancer activity, about 0 neutral, <0 antagonist
[29] = NCI-H292 cells, FDA library drug in complete media

Compound: CN(C)C(=O)c1cc2cnc(Nc3ccc(N4CCNCC4)cn3)nc2n1C1CCCC1 [Ribociclib hydrochloride]
- Cholesterol-free [1, 3]: 1.177
- Complete [1, 4]: 1.5
- Difference [1, 5]: 0.32
- Cholesterol-free media + simvastatin (0.04 μM) [2, 6]: 0.9857
- Complete Media [2, 7]: 0.8306
- Difference [2, 8]: −0.16

Compound: Capreomycin (sulfate)
- Cholesterol-free [1, 9]: 1.728
- Complete ([1]; NCI-H292 cells, complete media): 1.371
- Difference [1, 10]: −0.36
- Cholesterol-free media + simvastatin (0.04 μM) ([2]; NCI-H292 cells, cholesterol-free media with simvastatin 0.04 μM, […]): 0.9008
- Complete Media ([2]; NCI-H292 cells, complete media, […]): 0.9756
- Difference ([2]; complete media minus cholesterol-free media + simvastatin, […]): 0.07

Compound: O=S(=O)(c1cccc2cnccc12)N1CCCNCC1 [Fasudil (Hydrochloride)]
- Difference [1, 11]: −0.12
- Cholesterol-free [1, 12]: 1.121
- Complete [1, 7]: 1
- Cholesterol-free media + simvastatin (0.04 μM) [2, 6]: 0.9921
- Complete Media [2, 7]: 1.233
- Difference [2, 13]: 0.24

Compound: CCN(CC)CCOC(=O)C(c1ccccc1)C1CCCCC1 (stereo not shown) [Drofenine (hydrochloride)]
- Difference [1, 14]: −0.55
- Cholesterol-free [1, 15]: 1.437
- Complete [1, 16]: 0.8908
- Cholesterol-free media + simvastatin (0.04 μM) [2, 17]: 1.111
- Complete Media [2, 18]: 1.144
- Difference [2, 13]: 0.03

Compound: C[C@H](CSC(=O)c1ccccc1)C(=O)N1C[C@@H](Sc2ccccc2)C[C@H]1C(=O)O [Zofenopril (calcium)]
- Difference [1, 19]: −0.03
- Cholesterol-free [1, 3]: 1.281
- Complete [1, 4]: 1.25
- Cholesterol-free media + simvastatin (0.04 μM) [2, 20]: 0.8443
- Complete Media [2, 21]: 0.8399
- Difference [2, 22]: 0.00

Compound: CC1(C)CCC(CN2CCN(c3ccc(C(=O)NS(=O)(=O)c4ccc(NCC5CCOCC5)c([N+](=O)[O-])c4)c(Oc4cnc5[nH]ccc5c4)c3)CC2)=C(c2ccc(Cl)cc2)C1 [Venetoclax]
- Difference [1, 14]: −0.58
- Cholesterol-free [1, 15]: 1.517
- Complete [1, 16]: 0.9332
- Cholesterol-free media + simvastatin (0.04 μM) [2, 6]: 1.767
- Complete Media [2, 7]: 1.658
- Difference [2, 8]: −0.11

Compound: CCC1=C(C)CN(C(=O)NCCc2ccc(S(=O)(=O)NC(=O)N[C@H]3CC[C@H](C)CC3)cc2)C1=O [Glimepiride]
- Cholesterol-free [1, 9]: 1.246
- Complete ([1]; NCI-H292 cells, complete media): 0.8316
- Difference [1, 23]: −0.41
- Cholesterol-free media + simvastatin (0.04 μM) [2, 24]: 0.9904
- Complete Media [2, 25]: 0.7847
- Difference [2, 8]: −0.21

Compound: Cc1nccn1CCC(C(N)=O)(c1ccccc1)c1ccccc1 [Imidafenacin]
- Cholesterol-free [1, 3]: 0.8368
- Complete [1, 4]: 1.001
- Difference [1, 5]: 0.16
- Cholesterol-free media + simvastatin (0.04 μM) [2, 20]: 1.409
- Complete Media [2, 21]: 1.383
- Difference [2, 26]: −0.03

Compound: N[C@@H]1CONC1=O [D-Cycloserine]
- Cholesterol-free [1, 9]: 1.516
- Difference [1, 23]: −0.37
- Cholesterol-free media + simvastatin (0.04 μM) [2, 24]: 1.193
- Complete Media [2, 25]: 1.005
- Difference [2, 8]: −0.19

Compound: COc1ccc2c(c1O)-c1c(OC)c(OC)cc3c1[C@H](C2)N(C)CC3 [Isocorydine]
- Difference [1, 19]: −0.17
- Cholesterol-free [1, 12]: 1.162
- Complete [1, 7]: 0.9961
- Cholesterol-free media + simvastatin (0.04 μM) [2, 20]: 1.273
- Complete Media [2, 21]: 1.214
- Difference [2, 22]: −0.06

Compound: CC(N)C12CC3CC(CC(C3)C1)C2 (stereo not shown) [Rimantadine (hydrochloride)]
- Cholesterol-free [1, 3]: 0.8509
- Complete [1, 4]: 1.649
- Difference [1, 5]: 0.80
- Cholesterol-free media + simvastatin (0.04 μM) [2, 6]: 0.9474
- Complete Media [2, 7]: 0.8656
- Difference [2, 8]: −0.08

Compound: Atosiban (acetate)
- Cholesterol-free [1, 9]: 1.199
- Complete ([1]; NCI-H292 cells, complete media): 0.8162
- Difference [1, 10]: −0.38
- Cholesterol-free media + simvastatin (0.04 μM) [2, 27]: 1.587
- Difference ([2]; complete media vs cholesterol-free media + simvastatin (0.04 μM), […]): −0.52

Compound: Nc1nc2ccc(OC(F)(F)F)cc2s1 [Riluzole]
- Difference [1, 28]: 0.02
- Cholesterol-free [1, 3]: 1.015
- Complete [1, 4]: 1.033
- Cholesterol-free media + simvastatin (0.04 μM) [2, 6]: 0.9966
- Complete Media [2, 7]: 1.259
- Difference [2, 13]: 0.26

Compound: CCCSc1ccc2nc(NC(=O)OC)[nH]c2c1 [Albendazole]
- Cholesterol-free [1]: 0.9001
- Complete [1]: 0.9862
- Difference [1]: 0.09
- Cholesterol-free media + simvastatin (0.04 μM) [2]: 1.236
- Complete Media [2]: 0.9882
- Difference [2]: −0.25

Compound: COc1cccc(-c2c(C)n(Cc3c(F)cccc3C(F)(F)F)c(=O)n(C[C@H](NCCCC(=O)O)c3ccccc3)c2=O)c1F [(R)-Elagolix]
- Difference [1, 14]: −0.49
- Cholesterol-free [1, 15]: 1.394
- Complete [1, 16]: 0.8996
- Cholesterol-free media + simvastatin (0.04 μM) [2, 6]: 1.16
- Complete Media [2, 7]: 1.077
- Difference [2, 8]: −0.08

Compound: CNC(=O)c1cc(Oc2ccc(NC(=O)Nc3ccc(Cl)c(C(F)(F)F)c3)c(F)c2)ccn1 [Regorafenib (Hydrochloride)]
- Difference [1, 28]: 0.04
- Cholesterol-free [1, 3]: 0.8297
- Complete [1, 4]: 0.8736
- Cholesterol-free media + simvastatin (0.04 μM) [2, 20]: 0.9433
- Complete Media [2, 21]: 0.9026
- Difference [2, 26]: −0.04

Compound: C[C@H](O)C(=O)O [L-Lactic acid]
- Cholesterol-free [1, 9]: 1.267
- Complete ([1]; NCI-H292 cells, complete media): 0.8145
- Difference [1, 23]: −0.45
- Cholesterol-free media + simvastatin (0.04 μM) [2, 24]: 1.063
- Complete Media [2, 25]: 0.8704
- Difference [2, 8]: −0.19

Compound: CCOC(=O)c1ccc(N)cc1 [Benzocaine]
- Difference [1, 28]: −0.30
- Cholesterol-free [1, 9]: 0.9439
- Complete ([1]; NCI-H292 cells, complete media): 0.6479
- Cholesterol-free media + simvastatin (0.04 μM) [2, 27]: 1.309
- Complete Media [2, 29]: 1.007
- Difference [2, 8]: −0.30

Compound: OC[C@H]1O[C@@H](c2ccc(F)c(Cc3cc4ccccc4s3)c2)[C@H](O)[C@@H](O)[C@@H]1O [Ipragliflozin]
- Difference [1, 14]: −0.87
- Cholesterol-free [1, 15]: 1.769
- Complete [1, 16]: 0.8999
- Cholesterol-free media + simvastatin (0.04 μM) [2, 17]: 0.8889
- Complete Media [2, 18]: 0.9547
- Difference [2, 13]: 0.07

Compound: CCCCCCCCCCCC[N+](C)(C)CCOc1ccccc1.[Br-] [Domiphen (bromide)]
- Cholesterol-free [1]: −0.0357
- Complete [1]: 0.01628
- Difference [1]: 0.05
- Cholesterol-free media + simvastatin (0.04 μM) [2]: 0.01614
- Complete Media [2]: −0.0427
- Difference [2]: −0.06

Compound: O=C1CC2(CCCC2)CC(=O)N1CCCCN1CCN(c2ncccn2)CC1 [Buspirone (hydrochloride)]
- Cholesterol-free [1, 9]: 1.286
- Complete ([1]; NCI-H292 cells, complete media): 0.8529
- Difference [1, 23]: −0.43
- Cholesterol-free media + simvastatin (0.04 μM) [2, 17]: 0.8828
- Complete Media [2, 18]: 0.9935
- Difference [2, 13]: 0.11

Compound: Oc1c(Cl)cc(Cl)cc1Sc1cc(Cl)cc(Cl)c1O [Bithionol]
- Difference [1, 11]: −0.09
- Cholesterol-free [1, 12]: 0.9314
- Complete [1, 7]: 0.8442
- Cholesterol-free media + simvastatin (0.04 μM) [2, 27]: 2.228
- Complete Media [2, 29]: 1.353
- Difference [2, 8]: −0.88

Compound: CN(C(=O)CN(CCO)CC(=O)N(C)C(C)(C)Cc1ccccc1)C(C)(C)Cc1ccccc1 [Oxethazaine]
- Difference [1, 14]: −1.45
- Cholesterol-free [1, 15]: 2.442
- Complete [1, 16]: 0.9966
- Cholesterol-free media + simvastatin (0.04 μM) [2, 6]: 1.131
- Complete Media [2, 7]: 0.9874
- Difference [2, 8]: −0.14

From patent US20250144067A1, “PERSONALIZED STARVATION THERAPY FOR CANCER” (Faeth Therapeutics, Inc., priority 2021, published 2025)
